ChEMBL document CHEMBL5465560, “Selectivity Literature for EUbOPEN Chemogenomic Library” (2024)

Assays:
[1] = biological target: T1, Beta-adrenergic receptor kinase 1 (Homo sapiens) (UniProt P25098); assay: Selectivity interaction (KinomeScan (DiscoverX)) EUB0001049a ADRBK1; settings: at 1 µM
T1 sequence (whole entry): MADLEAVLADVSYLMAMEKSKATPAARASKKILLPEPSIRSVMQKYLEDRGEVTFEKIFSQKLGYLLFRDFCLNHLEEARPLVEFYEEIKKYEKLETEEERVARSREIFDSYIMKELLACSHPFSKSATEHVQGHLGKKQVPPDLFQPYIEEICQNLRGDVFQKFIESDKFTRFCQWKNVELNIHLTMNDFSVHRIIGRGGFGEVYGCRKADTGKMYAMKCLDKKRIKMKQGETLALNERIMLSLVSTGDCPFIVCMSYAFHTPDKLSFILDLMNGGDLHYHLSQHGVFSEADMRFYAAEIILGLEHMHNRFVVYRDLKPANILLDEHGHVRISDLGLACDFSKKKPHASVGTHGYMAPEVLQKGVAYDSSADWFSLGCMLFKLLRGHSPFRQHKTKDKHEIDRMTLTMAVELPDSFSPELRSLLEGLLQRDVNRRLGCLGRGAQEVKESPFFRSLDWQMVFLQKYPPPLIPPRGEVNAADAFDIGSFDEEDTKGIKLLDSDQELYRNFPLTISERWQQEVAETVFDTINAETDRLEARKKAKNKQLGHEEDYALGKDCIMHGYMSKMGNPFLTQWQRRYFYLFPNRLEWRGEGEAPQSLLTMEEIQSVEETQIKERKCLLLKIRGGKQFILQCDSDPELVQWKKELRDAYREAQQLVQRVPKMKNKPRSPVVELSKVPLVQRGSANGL

[2] = biological target: Phosphatidylinositol 4,5-bisphosphate 3-kinase catalytic subunit beta isoform (Homo sapiens) (UniProt P42338); assay: Selectivity interaction (KinomeScan (DiscoverX)) EUB0000229b PIK3CB; settings: at 10 µM
[3] = biological target: Mitogen-activated protein kinase kinase kinase 20 (Homo sapiens) (UniProt Q9NYL2); assay: Selectivity interaction (KinomeScan (DiscoverX)) EUB0001079a MAP3K20; settings: at 1 µM
[4] = biological target: Mitogen-activated protein kinase 14 (Homo sapiens, UniProt Q16539); assay: Selectivity interaction (Kinase panel (KiNativ target engagement assay in Jurkat cells)) EUB0001635a MAPK14; format: cell-based; settings: Selectivity number of off-targets 0.0, Selectivity number of targets 233.0, Source Knowledge https://www.sciencedirect.com/science/article/pii/S2451945619300674?via%3Dihub, at 1 µM
[5] = biological target: T2, Serine/threonine-protein kinase ULK1 (Homo sapiens) (UniProt O75385); assay: Selectivity interaction (ActivX KiNativ screen (kinase selectivity in THP-1 cell lysates)) EUB0000639a ULK1; format: subcellular; settings: lysate, at 0.2 µM
T2 sequence (whole entry): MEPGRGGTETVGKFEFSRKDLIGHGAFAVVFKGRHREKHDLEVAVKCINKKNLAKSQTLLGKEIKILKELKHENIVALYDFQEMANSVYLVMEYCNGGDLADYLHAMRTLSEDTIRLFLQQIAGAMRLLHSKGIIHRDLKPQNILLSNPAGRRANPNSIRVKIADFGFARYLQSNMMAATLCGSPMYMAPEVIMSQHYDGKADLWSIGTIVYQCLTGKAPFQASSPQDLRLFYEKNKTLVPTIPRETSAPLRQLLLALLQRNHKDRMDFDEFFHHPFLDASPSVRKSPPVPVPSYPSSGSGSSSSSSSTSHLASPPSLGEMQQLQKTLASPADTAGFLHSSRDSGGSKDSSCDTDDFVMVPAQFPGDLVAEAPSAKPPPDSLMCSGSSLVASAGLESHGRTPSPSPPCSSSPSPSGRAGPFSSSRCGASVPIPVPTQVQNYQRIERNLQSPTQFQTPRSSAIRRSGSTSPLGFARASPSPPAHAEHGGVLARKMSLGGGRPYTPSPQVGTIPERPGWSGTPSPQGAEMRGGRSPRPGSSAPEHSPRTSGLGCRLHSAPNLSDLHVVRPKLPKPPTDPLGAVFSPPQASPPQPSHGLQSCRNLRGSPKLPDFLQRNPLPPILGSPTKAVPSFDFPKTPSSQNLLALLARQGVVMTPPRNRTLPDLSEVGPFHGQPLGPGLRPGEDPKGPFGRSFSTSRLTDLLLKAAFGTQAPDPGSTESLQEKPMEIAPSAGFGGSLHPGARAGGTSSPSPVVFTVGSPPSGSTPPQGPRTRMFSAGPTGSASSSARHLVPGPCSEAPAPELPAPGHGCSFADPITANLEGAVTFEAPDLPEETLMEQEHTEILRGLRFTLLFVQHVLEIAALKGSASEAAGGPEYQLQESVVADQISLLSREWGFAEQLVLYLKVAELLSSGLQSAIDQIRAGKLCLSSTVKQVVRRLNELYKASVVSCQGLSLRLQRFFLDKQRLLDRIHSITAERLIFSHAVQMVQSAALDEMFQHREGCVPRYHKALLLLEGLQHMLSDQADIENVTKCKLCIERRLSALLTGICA

[6] = biological target: Serine/threonine-protein kinase OSR1 (Homo sapiens) (UniProt O95747); assay: Selectivity interaction (KinomeScan (DiscoverX)) EUB0000595a OXSR1; settings: at 10 µM
[7] = biological target: Receptor tyrosine-protein kinase erbB-4 (Homo sapiens, UniProt Q15303); assay: Selectivity interaction (KinomeScan (DiscoverX)) EUB0000595a ERBB4; settings: at 10 µM
[8] = biological target: Calcium/calmodulin-dependent protein kinase type II subunit alpha (Homo sapiens, UniProt Q9UQM7); assay: Selectivity interaction (Ambit KINOMEscan and KiNATiv profiling in Jurkat cells) EUB0000090b CAMK2A; format: cell-based; settings: at 1 µM
[9] = test system: Epidermal growth factor receptor (Homo sapiens), P00533 [UNDEFINED MUTATION]; assay: Selectivity interaction (LanthaScreen Eu Kinase Binding Assay) EUB0001632a EGFR; settings: at 10 µM
[10] = biological target: T3, Tyrosine-protein kinase TXK (Homo sapiens) (UniProt P42681); assay: Selectivity interaction (ProQinase) EUB0000171b TXK
T3 sequence (whole entry): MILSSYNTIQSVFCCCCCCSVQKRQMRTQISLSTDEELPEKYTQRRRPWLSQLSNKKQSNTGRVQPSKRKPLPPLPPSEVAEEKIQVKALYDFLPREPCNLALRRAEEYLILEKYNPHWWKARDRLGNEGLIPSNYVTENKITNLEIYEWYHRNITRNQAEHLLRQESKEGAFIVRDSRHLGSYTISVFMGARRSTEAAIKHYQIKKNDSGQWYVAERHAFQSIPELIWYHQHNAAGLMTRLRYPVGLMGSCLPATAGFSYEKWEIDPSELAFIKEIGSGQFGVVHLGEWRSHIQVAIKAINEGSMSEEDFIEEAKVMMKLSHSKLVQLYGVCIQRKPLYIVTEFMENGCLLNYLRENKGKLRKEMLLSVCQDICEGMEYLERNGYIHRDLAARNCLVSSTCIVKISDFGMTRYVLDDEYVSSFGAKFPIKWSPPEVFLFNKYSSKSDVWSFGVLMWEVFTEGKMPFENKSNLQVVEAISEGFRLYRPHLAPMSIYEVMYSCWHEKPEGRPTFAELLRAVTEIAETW

Sequence of Mitogen-activated protein kinase 14 (Q16539 whole entry): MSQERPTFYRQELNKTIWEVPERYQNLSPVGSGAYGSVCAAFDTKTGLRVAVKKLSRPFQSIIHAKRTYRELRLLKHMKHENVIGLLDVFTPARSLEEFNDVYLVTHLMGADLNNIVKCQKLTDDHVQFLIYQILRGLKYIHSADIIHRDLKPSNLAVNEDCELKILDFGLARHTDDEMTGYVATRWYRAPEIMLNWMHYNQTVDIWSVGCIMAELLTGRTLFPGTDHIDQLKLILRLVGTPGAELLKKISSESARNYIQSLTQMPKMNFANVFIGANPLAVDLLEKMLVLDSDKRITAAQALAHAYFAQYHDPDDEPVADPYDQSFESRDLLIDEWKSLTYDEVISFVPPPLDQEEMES
Sequence of Serine/threonine-protein kinase OSR1 (Homo sapiens) (O95747 2-527 limits assumed): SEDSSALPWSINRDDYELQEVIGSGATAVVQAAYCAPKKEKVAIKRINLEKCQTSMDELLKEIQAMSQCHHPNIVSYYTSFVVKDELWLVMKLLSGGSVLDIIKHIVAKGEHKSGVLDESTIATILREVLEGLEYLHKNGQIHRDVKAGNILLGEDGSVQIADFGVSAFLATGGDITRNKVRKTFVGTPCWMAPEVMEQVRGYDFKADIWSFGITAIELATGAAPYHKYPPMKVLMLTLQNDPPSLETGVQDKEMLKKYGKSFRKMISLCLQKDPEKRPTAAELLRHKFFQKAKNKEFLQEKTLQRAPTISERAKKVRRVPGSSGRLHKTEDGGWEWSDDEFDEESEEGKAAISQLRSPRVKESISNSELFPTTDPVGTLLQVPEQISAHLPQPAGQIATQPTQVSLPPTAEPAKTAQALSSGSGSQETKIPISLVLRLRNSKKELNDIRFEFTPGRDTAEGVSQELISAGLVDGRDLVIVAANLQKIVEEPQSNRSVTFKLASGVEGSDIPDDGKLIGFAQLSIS
Sequence of Receptor tyrosine-protein kinase erbB-4 (Q15303 whole entry): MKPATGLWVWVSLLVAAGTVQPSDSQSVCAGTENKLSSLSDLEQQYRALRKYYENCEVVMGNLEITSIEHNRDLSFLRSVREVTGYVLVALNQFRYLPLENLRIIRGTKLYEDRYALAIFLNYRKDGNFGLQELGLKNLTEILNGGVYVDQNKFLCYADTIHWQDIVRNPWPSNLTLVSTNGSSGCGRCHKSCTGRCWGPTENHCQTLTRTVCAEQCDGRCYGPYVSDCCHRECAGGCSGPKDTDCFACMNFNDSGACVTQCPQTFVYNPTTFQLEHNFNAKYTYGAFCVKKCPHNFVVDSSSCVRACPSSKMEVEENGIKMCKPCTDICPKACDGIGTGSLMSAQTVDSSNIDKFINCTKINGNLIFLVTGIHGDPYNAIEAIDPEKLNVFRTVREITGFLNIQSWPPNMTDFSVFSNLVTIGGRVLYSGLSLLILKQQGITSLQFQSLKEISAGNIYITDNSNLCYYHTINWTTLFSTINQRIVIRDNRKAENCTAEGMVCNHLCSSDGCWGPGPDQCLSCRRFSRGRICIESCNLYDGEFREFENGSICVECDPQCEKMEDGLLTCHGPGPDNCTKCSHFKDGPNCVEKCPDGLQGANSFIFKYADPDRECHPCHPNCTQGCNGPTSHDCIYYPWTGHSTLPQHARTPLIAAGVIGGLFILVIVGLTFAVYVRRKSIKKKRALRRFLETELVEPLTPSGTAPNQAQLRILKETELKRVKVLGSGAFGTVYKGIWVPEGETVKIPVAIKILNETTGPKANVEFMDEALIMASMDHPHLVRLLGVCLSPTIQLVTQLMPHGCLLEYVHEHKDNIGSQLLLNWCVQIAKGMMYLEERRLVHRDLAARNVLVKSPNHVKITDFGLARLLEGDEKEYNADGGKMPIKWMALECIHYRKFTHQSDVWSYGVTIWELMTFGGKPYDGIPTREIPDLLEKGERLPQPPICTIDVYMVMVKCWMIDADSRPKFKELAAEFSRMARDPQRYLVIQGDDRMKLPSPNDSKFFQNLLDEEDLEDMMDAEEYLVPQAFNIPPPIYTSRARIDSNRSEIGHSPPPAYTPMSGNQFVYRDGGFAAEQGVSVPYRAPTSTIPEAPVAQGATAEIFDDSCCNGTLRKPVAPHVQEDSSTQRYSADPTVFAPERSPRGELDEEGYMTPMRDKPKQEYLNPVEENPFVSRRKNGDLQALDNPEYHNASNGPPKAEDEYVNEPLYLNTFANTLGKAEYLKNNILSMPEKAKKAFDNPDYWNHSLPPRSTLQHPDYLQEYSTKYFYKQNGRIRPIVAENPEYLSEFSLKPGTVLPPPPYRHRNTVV
Sequence of Phosphatidylinositol 4,5-bisphosphate 3-kinase catalytic subunit beta isoform (Homo sapiens) (P42338 whole entry, looked up, canonical isoform): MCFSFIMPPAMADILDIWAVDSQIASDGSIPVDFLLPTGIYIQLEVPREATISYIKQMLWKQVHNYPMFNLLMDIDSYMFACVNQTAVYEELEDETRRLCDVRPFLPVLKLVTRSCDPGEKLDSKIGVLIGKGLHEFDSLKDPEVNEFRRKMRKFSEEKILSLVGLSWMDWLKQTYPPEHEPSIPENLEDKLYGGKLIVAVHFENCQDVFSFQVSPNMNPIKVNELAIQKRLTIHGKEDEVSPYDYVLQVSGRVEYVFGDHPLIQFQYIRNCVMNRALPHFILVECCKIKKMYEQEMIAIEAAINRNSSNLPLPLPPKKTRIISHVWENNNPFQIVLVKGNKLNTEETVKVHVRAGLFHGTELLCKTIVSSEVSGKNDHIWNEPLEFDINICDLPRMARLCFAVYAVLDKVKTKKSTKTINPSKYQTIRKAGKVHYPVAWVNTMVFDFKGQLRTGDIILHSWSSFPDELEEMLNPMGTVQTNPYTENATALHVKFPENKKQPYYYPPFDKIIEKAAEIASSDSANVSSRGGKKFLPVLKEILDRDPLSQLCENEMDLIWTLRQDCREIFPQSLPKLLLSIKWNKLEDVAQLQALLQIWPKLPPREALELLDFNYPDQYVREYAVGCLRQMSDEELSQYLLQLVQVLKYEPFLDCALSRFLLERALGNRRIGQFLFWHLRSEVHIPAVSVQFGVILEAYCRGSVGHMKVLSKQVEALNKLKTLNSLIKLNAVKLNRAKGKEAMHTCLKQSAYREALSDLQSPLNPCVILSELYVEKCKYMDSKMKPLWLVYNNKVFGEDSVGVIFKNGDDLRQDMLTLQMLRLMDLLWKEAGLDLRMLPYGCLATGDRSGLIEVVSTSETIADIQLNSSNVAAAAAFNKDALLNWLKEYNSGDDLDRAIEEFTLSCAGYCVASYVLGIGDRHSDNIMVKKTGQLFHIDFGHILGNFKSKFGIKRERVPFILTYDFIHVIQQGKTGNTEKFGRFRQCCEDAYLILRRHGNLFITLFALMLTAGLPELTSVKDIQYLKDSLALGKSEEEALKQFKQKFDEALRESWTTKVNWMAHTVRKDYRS
Sequence of Epidermal growth factor receptor (Homo sapiens), P00533 [UNDEFINED MUTATION] (P00533 whole entry, looked up, change not shown): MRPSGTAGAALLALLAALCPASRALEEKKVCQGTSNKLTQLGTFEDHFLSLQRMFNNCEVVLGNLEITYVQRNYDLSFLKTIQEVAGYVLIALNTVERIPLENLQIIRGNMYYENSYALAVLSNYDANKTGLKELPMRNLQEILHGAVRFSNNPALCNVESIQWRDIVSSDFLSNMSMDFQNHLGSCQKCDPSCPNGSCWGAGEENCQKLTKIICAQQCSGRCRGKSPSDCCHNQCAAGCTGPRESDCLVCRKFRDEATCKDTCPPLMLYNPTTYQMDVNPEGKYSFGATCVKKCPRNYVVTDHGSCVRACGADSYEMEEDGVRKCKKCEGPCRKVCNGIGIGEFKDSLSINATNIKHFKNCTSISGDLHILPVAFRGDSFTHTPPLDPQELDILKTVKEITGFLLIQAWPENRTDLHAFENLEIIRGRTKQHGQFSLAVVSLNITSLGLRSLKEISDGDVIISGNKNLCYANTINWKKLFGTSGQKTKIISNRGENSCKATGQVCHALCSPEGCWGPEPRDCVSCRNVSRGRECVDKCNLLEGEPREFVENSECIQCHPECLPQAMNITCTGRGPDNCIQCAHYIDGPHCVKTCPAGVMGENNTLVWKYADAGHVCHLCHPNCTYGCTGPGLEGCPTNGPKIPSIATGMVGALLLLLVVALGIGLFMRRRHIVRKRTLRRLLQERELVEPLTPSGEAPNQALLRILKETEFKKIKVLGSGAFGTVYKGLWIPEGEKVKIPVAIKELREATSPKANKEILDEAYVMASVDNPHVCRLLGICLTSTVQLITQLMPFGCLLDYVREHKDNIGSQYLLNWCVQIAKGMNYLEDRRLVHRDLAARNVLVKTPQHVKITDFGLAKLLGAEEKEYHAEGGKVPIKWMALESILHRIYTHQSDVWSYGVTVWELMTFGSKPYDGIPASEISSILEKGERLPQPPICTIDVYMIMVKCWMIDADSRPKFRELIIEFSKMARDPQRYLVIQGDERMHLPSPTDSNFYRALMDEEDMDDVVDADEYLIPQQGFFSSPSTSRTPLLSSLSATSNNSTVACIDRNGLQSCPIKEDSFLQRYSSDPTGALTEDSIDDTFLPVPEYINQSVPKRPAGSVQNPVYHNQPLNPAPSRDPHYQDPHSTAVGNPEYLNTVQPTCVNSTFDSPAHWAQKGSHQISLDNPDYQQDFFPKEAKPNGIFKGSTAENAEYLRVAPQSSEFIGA
Sequence of Calcium/calmodulin-dependent protein kinase type II subunit alpha (Q9UQM7 whole entry): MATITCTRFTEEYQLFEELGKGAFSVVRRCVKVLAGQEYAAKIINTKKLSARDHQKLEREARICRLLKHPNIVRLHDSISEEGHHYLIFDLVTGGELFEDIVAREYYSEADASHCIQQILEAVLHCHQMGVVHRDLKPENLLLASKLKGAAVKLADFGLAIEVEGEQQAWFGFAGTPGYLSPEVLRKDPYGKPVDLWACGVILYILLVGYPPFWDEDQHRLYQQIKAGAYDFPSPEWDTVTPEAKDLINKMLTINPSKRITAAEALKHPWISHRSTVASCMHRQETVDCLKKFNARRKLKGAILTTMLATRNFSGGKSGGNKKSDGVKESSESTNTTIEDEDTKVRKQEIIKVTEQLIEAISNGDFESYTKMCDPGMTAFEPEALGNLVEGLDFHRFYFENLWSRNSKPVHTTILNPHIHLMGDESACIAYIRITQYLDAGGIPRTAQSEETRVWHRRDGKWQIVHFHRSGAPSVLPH

SMILES: COc1cc(Nc2nc(C)cc(-c3cnn4nc(OC)ccc34)n2)cc(C(F)(F)F)c1
- % of control [1]: 100%

SMILES: COc1cc(N(C)c2ccnc3ccc(C(F)(F)F)cc23)cc(OC)c1OC
- % binding [2]: 63%

SMILES: Nc1cnc(N2CCc3cc(S(=O)(=O)Nc4c(F)cc(Cl)cc4F)cc(N4CCCC4=O)c32)nc1 [TP-020n]
- % of control [3]: 95%

SMILES: C=CC(=O)Nc1ccc(C(=O)Nc2[nH]nc3c2CN(C(=O)N[C@H](CN(C)C)c2ccccc2)C3(C)C)cc1
- % of engagement [4]: -12.8%

SMILES: CC[C@@H]1[C@H](F)C(=O)N[C@@H]1COc1nccc2cc(C(N)=O)c(OC)cc12 [ZIMLOVISERTIB]
- % of inhibition [5]: -29.3%

SMILES: COCC(=O)NC/C=C/c1ccc2ncnc(Nc3ccc(Oc4ccc(C)nc4)c(C)c3)c2c1 [CP-724714]
- % of control [6]: 100%
- % of control [7]: 0.9%

SMILES: CN(C)C/C=C/C(=O)Nc1ccc(C(=O)N2CCCC(Nc3ncc(Cl)c(-c4c[nH]c5ccccc45)n3)C2)cc1 (stereo unspecified)
- % of control [8]: 99%

SMILES: Cn1cc(-n2cnc3c(NCc4nc5cc(Cl)c(Cl)cc5[nH]4)nc(N4CCOCC4)nc32)cn1
- % of inhibition [9]: -12%

SMILES: C=CC(=O)Nc1cccc(C(=O)Nc2ccc(Nc3cc(-c4[nH]c(SC)nc4C)ccn3)cc2)c1
- % of control ([10]; at 1 µM): 87%
- % of control ([10]; at 5 µM): 77%
